According to PubChem BioAssay AID1963839 (Molecular Pharmacology Branch, DTP, NCI, 2024):
“And” between values parts separate entries of the source, which are not always exact repeats. Equal entries are not always repeated.

Tested on: 817829-284-R-J1-PDC complex spheroid viability
Assay: Anticancer human tumor 817829-284-R-J1-PDC patient-derived colon adenocarcinoma cell line growth inhibition [POLQ]
Settings: for viability, T/C: stronger effect = lower value; for IC50: curve of compound
Procedure: Multicellular complex tumor spheroid response to Polymerase (POL) inhibitors (novobiocin, ART-558, RP6685) in combination with a variety of drugs and investigational agents in selected tumor cell lines
The POL inhibitors (novobiocin, ART-558, and RP6685) were evaluated both individually and in combination with standard of care and investigational anticancer small molecules within a complex spheroid model of solid tumors. . Complex spheroids include a stromal component modeled by human endothelial cells (HUVEC) and fibroblasts modeled by human mesenchymal stem cells (MSCs). The concentration ranges selected for each drug and investigational agent were based upon clinically achievable concentrations if the clinical Cmax of the agent was known.
Compounds. The drugs and investigational agents: novobiocin (NSC847541), ART-558 (NSC835418), RP-6685 (NSC848927), peposertib (NSC802822), ceralasertib (NSC780249), elimusertib (NSC800525), camonsertib (NSC841442), AZD-1390 (NSC803789), olaparib (NSC753686), talazoparib (NSC767125), rucaparib (NSC756644), sotorasib (NSC818433), MRTX-1133 (NSC836407), SN-38 (NSC673596), topotecan (NSC609699), epotoside (NSC141540), doxorubicin (NSC123127), gemcitabine (NSC613327), 5-fluorouracil (NSC19893), paclitaxel (NSC125973), vemurafenib (NSC761431), MSA-2 (NSC828583), SN-011 (NSC837082), adavosertib (NSC754352), prexasertib (NSC758257), carboplatin (NSC241240) and oxaliplatin (NSC266046), were obtained from the National Cancer Institute (NCI) Developmental Therapeutics Program Chemical Repository (21). The FDA-approved anticancer drug set is available from the Developmental Therapeutics Program at https://dtp.cancer.gov/organization/dscb/obtaining/. […] The stock solutions were prepared in dimethyl sulfoxide (DMSO, Sigma-Aldrich, St. Louis, MO, cat. D2650), except for the platinum compounds which were prepared in saline (Quality Biological, Gaithersburg, MD, cat. 114-055-101), at 800-fold the tested concentration and stored at -70 degrees C prior to their use. All drugs and investigational agents were tested over a range starting from a high concentration at or near the clinical Cmax and decreasing in half-log increments. If the clinical Cmax for an agent had not been determined, the highest concentration tested was 10 microM, except for SN-38, which was tested at a high concentration of 1 microM.
Cell Culture. All cells were maintained in an incubator at 37 degrees C and 5% CO2 with 95% humidity. The PDC lines were cultured according to standard operating procedures established by the NCI PDMR (https://pdmr.cancer.gov). Table 3 of the manuscript, lists the cell lines along with the number of the three cell types plated to form the mct-spheroids and media for tumor cell growth. After thawing, all PDC lines, except 997537-175-T-J1-PDC and 415267-285-R-J2-PDC, were cultured in Matrigel-coated flasks prepared with a working solution of 1X Ham's F-12 nutrient mix, without supplementation (Thermo Fisher Scientific, cat. 11765054), 100 U/mL penicillin-streptomycin (Thermo Fisher Scientific, cat. 15140122), and 2.5% Matrigel (Corning Inc., Corning, NY, cat. 354248) for the first three passages. The two PDC lines 997537-175-T-J1-PDC and 415267-285-R-J2-PDC were cultured on uncoated flasks. The 857933-349-R-J2-PDC line was cultured in 6C/Colon 1B media containing advanced DMEM/F-12 (Thermo Fisher Scientific, cat. 12634028), 10 mM HEPES (Thermo Fisher Scientific, cat. 15630080), 1X GlutaMAX supplement (Thermo Fisher Scientific, cat. 35050061), 0.1 mg/mL primocin (InvivoGen, San Diego, CA, cat. ant-pm-2), 10% defined fetal bovine serum, heat inactivated (HyClone Laboratories Inc., Logan, UT, cat. SH30070.03HI), 50% L-WRN conditioned media (ATCC, cat. CRL-3276), 1.25 mM N-Acetyl-L-cysteine (Sigma-Aldrich, cat. A9165), 10 mM nicotinamide (Sigma-Aldrich, cat. N0636), 1X B-27 supplement (Thermo Fisher Scientific, cat. 17504044), 1X N-2 supplement (Thermo Fisher Scientific, cat. […]
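Further: spheroids exposed to compounds for 7 days.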
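Wherever viability, T/C is given: 100% = DMSO vehicle-treated spheroids.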

| SMILES | viability, T/C (compound 0.0316 µM) | viability, T/C (compound 0.1 µM) | viability, T/C (compound 0.316 µM) | viability, T/C (compound 1 µM) | viability, T/C (compound 3.16 µM) | viability, T/C (compound 10 µM) | IC50 | viability, T/C (compound 0.00316 µM) | viability, T/C (compound 0.01 µM) | viability, T/C (compound 0.00949 µM) | viability, T/C (compound 0.03 µM) | viability, T/C (compound 0.0949 µM) | viability, T/C (compound 0.3 µM) | viability, T/C (compound 0.949 µM) | viability, T/C (compound 3 µM) | viability, T/C (compound 0.000316 µM) | viability, T/C (compound 0.001 µM) |
| --- | --- | --- | --- | --- | --- | --- | --- | --- | --- | --- | --- | --- | --- | --- | --- | --- | --- |
| C#Cc1c(F)ccc2cc(O)cc(-c3ncc4c(N5CC6CCC(C5)N6)nc(OCC56CCCN5CC(F)C6)nc4c3F)c12 (centres undefined) | 95.2% and 94.8% and 96% | 84.6% and 98.2% and 122% | 72% and 98.1% and 118% | 88.4% and 89% and 92.8% | 90.2% and 111% and 115% | 53.8% and 102% and 54.2% | > 10000 nM | – | – | – | – | – | – | – | – | – | – |
| C=CC(=O)N1CCN(c2nc(=O)n(-c3c(C)ccnc3C(C)C)c3nc(-c4c(O)cccc4F)c(F)cc23)C(C)C1 (centres undefined) | 70% and 89.9% and 113% | 93.6% and 105% and 95.7% | 103% and 97.2% and 99.5% | 86.7% and 94.7% and 101% | 88.8% and 90.2% and 102% | 53% and 58.3% and 44.1% | > 10000 nM and 8900 nM | – | – | – | – | – | – | – | – | – | – |
| C=CCn1c(=O)c2cnc(Nc3ccc(N4CCN(C)CC4)cc3)nc2n1-c1cccc(C(C)(C)O)n1 | 71.1% and 89.5% and 98.8% | 77.6% and 72.5% and 64.8% | 36.1% and 33.8% and 40.5% | 5.95% and 6.09% and 5.44% | – | – | 188 nM and 195 nM and 208 nM | 115% and 101% and 105% | 93.7% and 84% and 89.8% | – | – | – | – | – | – | – | – |
| CC(=O)O[C@H]1C(=O)[C@@]2(C)[C@H]([C@H](OC(=O)c3ccccc3)[C@]3(O)C[C@H](OC(=O)[C@H](O)[C@@H](NC(=O)c4ccccc4)c4ccccc4)C(C)=C1C3(C)C)[C@]1(OC(C)=O)CO[C@@H]1C[C@@H]2O | – | – | – | – | – | – | < 9.49 nM | – | – | 5.15% and 4.45% and 5.76% | 3.94% and 3.44% and 4.19% | 3.9% and 3.92% and 5.6% | 4.36% and 3.82% and 4.56% | 4.81% and 4.08% and 5.15% | 4.4% and 3.61% and 5.14% | – | – |
| CC1COCCN1c1cc(-c2ccnn2C)c2ccnc(-c3ccn[nH]3)c2n1 (centres undefined) | 33.8% and 33.3% and 74.6% | 11.3% and 12.5% (2×) | 7.44% and 7.37% and 5.59% | 4.37% and 3.99% and 4.03% | 3.67% and 2.87% and 3.57% | 2.72% and 2.9% and 2.76% | < 31.6 nM and 49.9 nM | – | – | – | – | – | – | – | – | – | – |
| CC1COCCN1c1cc(C2(O)CC3CCC(C2)O3)c2cnn(-c3ccn[nH]3)c2n1 (centres undefined) | 25.2% and 23.3% and 30.1% | 8.33% and 10.7% and 8.37% | 4.72% and 4.82% and 4.13% | 3.5% and 3.16% and 3.44% | 3.23% and 3.58% and 4.19% | 2.41% and 1.97% and 3.04% | < 31.6 nM | – | – | – | – | – | – | – | – | – | – |
| CC1COCCN1c1cc(C2(S(C)(=N)=O)CC2)nc(-c2ccnc3[nH]ccc23)n1 (centres undefined) | 110% and 98% and 105% | 96.4% and 67.8% and 94.3% | 65% and 52.9% and 63.1% | 33.9% and 23.4% and 25.4% | 8.76% and 7.96% and 7.97% | 4.29% and 4.9% and 3.97% | 545 nM and 274 nM and 472 nM | – | – | – | – | – | – | – | – | – | – |
| CCCS(=O)(=O)Nc1ccc(F)c(C(=O)c2c[nH]c3ncc(-c4ccc(Cl)cc4)cc23)c1F | 89.8% and 97% and 86.7% | 87% and 72.4% and 57% | 66.1% and 86.6% and 80.9% | 72.1% and 59.4% and 61% | 55.4% and 56.3% and 59.4% | 7.53% and 9.53% and 19.9% | 3260 nM and 2920 nM and 3800 nM | – | – | – | – | – | – | – | – | – | – |
| CC[C@@]1(O)C(=O)OCc2c1cc1n(c2=O)Cc2cc3c(CN(C)C)c(O)ccc3nc2-1 | 22.9% and 25.4% and 21.7% | 15.2% and 16.8% and 14.6% | – | – | – | – | 4.5 nM and 7.57 nM and 6.12 nM | 55.4% and 82.4% and 60.1% | 39.6% and 38.4% and 46% | – | – | – | – | – | – | 89.9% and 104% and 89% | 72.3% and 95.7% and 74.1% |
| CCc1c2c(nc3ccc(O)cc13)-c1cc3c(c(=O)n1C2)COC(=O)[C@]3(O)CC | 13.7% and 12.4% and 11.8% | 7.6% and 9.24% and 7.39% | 6.4% and 5.1% and 5.47% | 3.09% and 2.77% and 3.28% | – | – | < 3.16 nM | 19.4% and 20.1% and 25.3% | 16.5% and 16.4% and 16.3% | – | – | – | – | – | – | – | – |
| CCc1cc2c(N3CCc4c(cc(Cn5ccnc5)cc4-c4cn(C)nc4C(F)(F)F)C3=O)cc(C)nc2c(OC)n1 | 88.4% and 75.3% and 76.3% | 85.8% and 83.5% and 79.4% | 75.3% and 63.8% and 69.3% | 80.6% and 56.1% and 65.8% | 46.4% and 44.7% and 47.9% | 33.1% and 29.7% and 30.8% | 2800 nM and 1740 nM and 2830 nM | – | – | – | – | – | – | – | – | – | – |
| CCc1cc2c(N3CCc4c(cc(Cn5ccnc5)cc4-c4cn(C)nc4C(F)(F)F)C3=O)ccnc2c(OC)n1 | 101% and 91.9% and 80.3% | 81% and 77.6% and 71.7% | 88.4% and 77.1% and 66.4% | 65.8% and 68.8% and 64.9% | 54.2% and 59.5% and 53.1% | 34.8% and 38% and 33.4% | 3920 nM and 4920 nM and 3550 nM | – | – | – | – | – | – | – | – | – | – |
